# Test results published in patent publication US7452894B2, “Purine derivatives as purinergic receptor antagonists” (Vernalis Research Limited, priority 2001, dated 2008).
# Where two headings read alike, the source gives them in different places.
# Key:
# [1] = target: human adenosine A2A receptors (Homo sapiens, UniProt P29274); assay: Binding affinities at hA2A receptors, displacement of [3H]-CGS 21680
# [2] = human adenosine A2A receptor, radioligand [3H]-CGS 21680
# human adenosine A2A receptors, sequence (P29274 whole entry): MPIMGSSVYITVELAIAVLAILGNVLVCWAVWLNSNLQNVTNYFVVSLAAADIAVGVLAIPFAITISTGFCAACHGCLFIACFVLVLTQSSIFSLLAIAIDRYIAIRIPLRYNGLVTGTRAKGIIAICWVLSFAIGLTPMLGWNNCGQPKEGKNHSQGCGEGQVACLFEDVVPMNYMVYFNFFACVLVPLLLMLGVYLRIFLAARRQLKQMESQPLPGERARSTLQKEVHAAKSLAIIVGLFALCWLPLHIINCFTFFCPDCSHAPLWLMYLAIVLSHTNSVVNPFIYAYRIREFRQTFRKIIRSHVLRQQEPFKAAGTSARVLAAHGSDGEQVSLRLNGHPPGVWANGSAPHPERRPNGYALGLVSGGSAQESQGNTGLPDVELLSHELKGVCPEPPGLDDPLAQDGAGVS
SMILES,melting point,further results
"Nc1nc(-c2ccco2)c2ncn(Cc3cccc(Cl)c3)c2n1 [Example 125, 9-(3-Chlorobenzyl)-6-(2-furyl)-9H-purine-2-amine]",,Ki [1]: 6 nM
"Nc1nc(-c2ccco2)c2ncn(C(=O)NCc3ccc(Cl)c(Cl)c3)c2n1 [Example 80, 2-Amino-N-(3,4-dichlorobenzyl)-6-(2-furyl)-9H-purine-9-carboxamide]",,Ki [1]: 5 nM
"Cc1ccc(CNC(=O)n2cnc3c(-c4ccco4)nc(N)nc32)cc1 [Example 38, 2-Amino-6-(2-furyl)-N-(4-methylbenzyl)-9H-purine-9-carboxamide]",,"Ki [1, 2]: 1 nM"
"Cc1cccc(Cn2cnc3c(-c4ccco4)nc(N)nc32)c1 [Example 126, 6-(2-Furyl)-9-(3-methylbenzyl)-9H-purine-2-amine]",,Ki [1]: 7 nM
"COc1nc(-c2ccco2)c2ncn(C(=O)NCc3ccccc3)c2n1 [Example 112, N-Benzyl-2-methoxy-6-(2-furyl)-9H-purine-9-carboxamide]",,"Ki [1, 2]: 8 nM"
"CCCCNC(=O)n1cnc2c(-c3ccco3)nc(N)nc21 [Example 36, 2-Amino-N-n-butyl-6-(2-furyl)-9H-purine-9-carboxamide]",,Ki [1]: 7 nM
"Nc1nc(-c2ccco2)c2ncn(C(=O)NCc3ccco3)c2n1 [Example 201, 2-Amino-6-(2-furyl)-N-(2-furylmethyl)-9H-purine-9-carboxamide]",,"Ki [1, 2]: 2 nM"
"Nc1nc(-c2ccco2)c2ncn(Cc3ccccc3F)c2n1 [Example 157, 9-(2-Fluorobenzyl)-6-(2-furyl)-9H-purine-2-amine]",,Ki [1]: 4 nM
"Nc1nc(-c2ccco2)c2ncn(C(=O)NCc3ccc(F)cc3)c2n1 [Example 79, 2-Amino-N-(4-fluorobenzyl)-6-(2-furyl)-9H-purine-9-carboxamide]",,"Ki [1, 2]: 1 nM"
"CCCCCNC(=O)n1cnc2c(-c3ccco3)nc(N)nc21 [Example 52, 2-Amino-6-(2-furyl)-N-n-pentyl-9H-purine-9-carboxamide]",,Ki [1]: 5 nM
"Nc1cccc(Cn2cnc3c(-c4ccco4)nc(N)nc32)c1 [Example 192, 9-(3-Aminobenzyl)-6-(2-furyl)-9H-purine-2-amine]",,Ki [1]: 24 nM
"CN(Cc1ccccc1)C(=O)n1cnc2c(-c3ccco3)nc(N)nc21 [Example 118, 2-Amino-N-benzyl-6-(2-furyl)-N-methyl-9H-purine-9-carboxamide]",,Ki [1]: 3 nM
"Nc1nc(-c2ccco2)c2ncn(C/C=C/c3ccccc3)c2n1 [Example 57, 6-(2-Furyl)-9-(1-phenyl-1-propene-3-yl)-9H-purine-2-amine]",,Ki [1]: 12 nM
"COc1ccc(CNC(=O)n2cnc3c(-c4ccco4)nc(N)nc32)cc1 [Example 37, 2-Amino-6-(2-furyl)-N-(4-methoxybenzyl)-9H-purine-9-carboxamide]",,Ki [1]: 4 nM
"Nc1nc(-c2ccco2)c2ncn(C(=O)N3CCCC3)c2n1 [Example 29, 6-(2-Furyl)-9-(1-pyrrolidinylcarbonyl)-9H-purine-2-amine]",> 300 °C (dec.),
"CC(C)CC(=O)n1cnc2c(-c3ccco3)nc(N)nc21 [Example 33, 6-(2-Furyl)-9-(3-methylbutyryl)-9H-purine-2-amine]",175.4 to 176.1 °C,
"CCCNC(=O)Cn1cnc2c(-c3ccco3)nc(N)nc21 [Example 124, 2-Amino-6-(2-furyl)-N-n-propyl-9H-purine-9-acetamide]",258.7 to 260.1 °C,
C[Si](C)(C)CCOCn1cnc2c(-c3ccco3)nc(NCCO)nc21,125.9 to 126.4 °C,
"Nc1nc(-c2cc3ccccc3o2)c2ncn(C(=O)NCc3ccccc3)c2n1 [Example 128, 2-Amino-6-(benzofuran-2-yl)-N-benzyl-9H-purine-9-carboxamide]",> 250 °C (dec.),

SMILES,melting point,further results
COc1nc(-c2ccco2)c2ncn(COCC[Si](C)(C)C)c2n1,79.6 °C (dec.),
"CC(C)(C)c1ccc(S(=O)(=O)n2cnc3c(-c4ccco4)nc(N)nc32)cc1 [Example 27, 9-(4-tert-Butylphenylsulphonyl)-6-(2-furyl)-9H-purine-2-amine]",238.7 to 239.2 °C,
"Nc1nc(-c2ccco2)c2ncn(CC(=O)Nc3ccccn3)c2n1 [Example 122, 2-Amino-6-(2-furyl)-N-(2-pyridyl)-9H-purine-9-acetamide]",242.5 to 243.6 °C,
"Nc1nc(-c2ccco2)c2ncn(C(=O)NC3CCCCC3)c2n1 [Example 19, 2-Amino-N-cyclohexyl-6-(2-furyl)-9H-purine-9-carboxamide]",177.6 to 178.2 °C,
"CC(C)(C)NC(=O)n1cnc2c(-c3ccco3)nc(N)nc21 [Example 21, 2-Amino-N-tert-butyl-6-(2-furyl)-9H-purine-9-carboxamide]",295 °C (dec.),
"Nc1nc(-c2ccc(Cl)s2)c2ncn(C(=O)NCc3ccccc3)c2n1 [Example 130, 2-Amino-N-benzyl-6-(5-chloro-2-thienyl)-9H-purine-9-carboxamide]",194 to 195 °C (dec.),
"Nc1nc(-c2ccco2)c2ncn(CC(=O)O)c2n1 [Example 73, 2-Amino-6-(2-furyl)-9H-purine-9-acetic acid]",> 300 °C (dec.),
"Nc1nc(-c2cncs2)c2nc[nH]c2n1 [Example 137, 6-(5-Thiazolyl)-1H-purine-2-amine]",300 °C (dec.),
"Nc1nc(-c2ccco2)c2ncn(CC(=O)Nc3ccncc3)c2n1 [Example 142, 2-Amino-6-(2-furyl)-N-(4-pyridyl)-9H-purine-9-acetamide]",281.3 to 283.2 °C,
"O=C(Nc1ccccc1)Nc1nc(-c2ccco2)c2nc[nH]c2n1 [Example 23, N-(6-(2-Furyl)-1H-purine-2-yl)-N'-phenylurea]",> 330 °C (dec.),
"CNC(=O)Cn1cnc2c(-c3ccco3)nc(N)nc21 [Example 89, 2-Amino-6-(2-furyl)-N-methyl-9H-purine-9-acetamide]",290.2 to 291.6 °C,
"Cc1nc(-c2nc(N)nc3[nH]cnc23)no1 [Example 90, 6-(5-Methyl-[1,2,4]-oxadiazol-3-yl)-1H-purine-2-amine]",> 200 °C (dec.),
"Cn1cccc1-c1nc(N)nc2c1ncn2C(=O)NCc1ccccc1 [Example 134, 2-Amino-N-benzyl-6-(1-methyl-1H-pyrrol-2-yl)-9H-purine-9-carboxamide]",> 230 °C (dec.),
"Nc1nc(-c2ccco2)c2ncn(CC(=O)NCCc3ccccc3)c2n1 [Example 123, 2-Amino-6-(2-furyl)-N-(2-phenylethyl)-9H-purine-9-acetamide]",247.3 to 247.4 °C,
"OCCNc1nc(-c2ccco2)c2nc[nH]c2n1 [Example 5, N-(2-Hydroxyethyl)-6-(2-furyl)-1H-purine-2-amine]",227.1 to 228.1 °C,
"CC(C)(C)OC(=O)n1cnc2c(-c3ccco3)nc(Cl)nc21 [Example 7, tert-Butyl 2-chloro-6-(2-furyl)-9H-purine-9-carboxylate]",> 305 °C (dec.),
"Nc1nc(-c2ccco2)c2ncn(CC(=O)Nc3ccccc3)c2n1 [Example 85, 2-Amino-6-(2-furyl)-N-phenyl-9H-purine-9-acetamide]",289.1 to 289.7 °C,
"Nc1nc(-c2cc3ccccc3o2)c2nc[nH]c2n1 [Example 120, 6-(Benzofuran-2-yl)-1H-purine-2-amine]",310 to 310.3 °C,
"Cc1ccccc1NC(=O)Cn1cnc2c(-c3ccco3)nc(N)nc21 [Example 140, 2-Amino-6-(2-furyl)-N-(2-methylphenyl)-9H-purine-9-acetamide]",299.2 to 299.3 °C,

# More lines, main results first:
melting point,SMILES,further results
301.1 to 302.1 °C,"Nc1nc(-c2ccco2)c2ncn(Cc3ccc(C(=O)O)cc3)c2n1 [Example 216, 4-(2-Amino-6-(2-furyl)-9H-purine-9-ylmethyl)benzoic acid]",
285.6 to 286.4 °C,"Nc1nc(-c2ccco2)c2ncn(CC(=O)Nc3cccnc3)c2n1 [Example 143, 2-Amino-6-(2-furyl)-N-(3-pyridyl)-9H-purine-9-acetamide]",
287.1 to 288.2 °C,"COc1ccc(NC(=O)Cn2cnc3c(-c4ccco4)nc(N)nc32)c(C)c1 [Example 169, 2-Amino-6-(2-furyl)-N-(4-methoxy-2-methylphenyl)-9H-purine-9-acetamide]",
246.2 to 248 °C,"Cc1ccc(-c2nc(N)nc3[nH]cnc23)nc1 [Example 241, 6-(5-Methyl-2-pyridinyl)-1H-purine-2-amine]",
278.5 to 280.4 °C,"COc1cccc(NC(=O)Cn2cnc3c(-c4ccco4)nc(N)nc32)c1 [Example 231, 2-Amino-6-(2-furyl)-N-(3-methoxyphenyl)-9H-purine-9-acetamide]",
305.4 to 306.8 °C,"Nc1nc(-c2ccco2)c2ncn(Cc3cccc4[nH]ccc34)c2n1 [Example 271, 6-(2-Furyl)-9-(4-indolylmethyl)-9H-purine-2-amine]",
243.2 to 243.8 °C,"Nc1nc(-c2ccco2)c2ncn(Cc3cccc(C(=O)NCc4ccccc4)c3)c2n1 [Example 226, 3-(2-Amino-6-(2-furyl)-9H-purine-9-ylmethyl)-N-benzylbenzamide]",
219.5 to 219.7 °C,"COC(=O)c1ccc(Cn2cnc3c(-c4ccco4)nc(N)nc32)cc1 [Example 215, Methyl 4-(2-amino-6-(2-furyl)-9H-purine-9-ylmethyl)benzoate]",
171.2 to 171.3 °C,"CS(=O)(=O)Nc1cccc(Cn2cnc3c(-c4ccco4)nc(N)nc32)c1 [Example 217, 6-(2-Furyl)-9-(3-methanesulphonylaminobenzyl)-9H-purine-2-amine]",
290.6 to 290.7 °C,"Nc1nc(-c2ccco2)c2ncn(Cc3ccccc3[N+](=O)[O-])c2n1 [Example 197, 6-(2-Furyl)-9-(2-nitrobenzyl)-9H-purine-2-amine]",
302.5 to 304.8 °C,"N#Cc1cccc(Cn2cnc3c(-c4ccco4)nc(N)nc32)c1 [Example 177, 9-(3-Cyanobenzyl)-6-(2-furyl)-9H-purine-2-amine]",
254.7 to 255.3 °C,"CS(=O)(=O)Nc1ccccc1Cn1cnc2c(-c3ccco3)nc(N)nc21 [Example 210, 6-(2-Furyl)-9-(2-methanesulphonylaminobenzyl)-9H-purine-2-amine]",
265.6 to 266 °C,"Nc1nc(-c2ccco2)c2ncn(Cc3ccccc3NS(=O)(=O)c3cccs3)c2n1 [Example 238, 6-(2-Furyl)-9-(2-(2-thienylsulphonylamino)benzyl)-9H-purine-2-amine]",
